In US20090318430A1, “MEDICAL USE OF CYCLIN DEPENDENT KINASES INHIBITORS” (ASTEX THERAPEUTICS LIMITED, priority 2006, published 2009):
Counter-ions that a name gives are not always drawn. Blank lines part the entries; values can stand above or below the molecule they belong to.

What was measured:
[1] = Vapour sorption/desorption analysis; assay type: physicochemical
Method: Crystals of 4-(2,6-dichlorobenzoylamino)-1H-pyrazole-3-carboxylic acid (1-methanesulphonyl-piperidin-4-yl)-amide prepared by the recrystallisation method of Example 11 Step 8 were subjected to vapour sorption/desorption analysis in order to test for the propensity of this sample to form a hydrated state.
Approximately 20 mg of sample was placed into a wire-mesh vapour sorption balance pan and loaded into an ‘IgaSorp’ vapour sorption balance (Hiden Analytical Instruments) held at 25+/−0.1° C. The sample was then dried by maintaining a 0% humidity environment (using mass flow control apparatus) until no further weight change was recorded. Subsequently, the sample was then subjected to a ramping profile from 0-90% relative humidity (% RH) at 10% RH increments, maintaining the sample at each step until equilibration had been attained (99.5% step completion).
Upon reaching equilibration, the % RH within the apparatus was ramped to the next step and the equilibration procedure repeated. After completion of the sorption cycle, the sample was then dried using the same procedure. The weight change during the sorption/desorption cycles was then monitored, allowing for the hygroscopic nature of the sample to be determined.

[2] = molecular target: T1, Cdk5/p35 enzyme (Upstate) (Homo sapiens, UniProt Q00535); assay: Alternative CDK5 assay (DELFIA, biotinylated histone H1 peptide); assay type: biochemical; settings: Cdk5/p35, ATP, 30 minutes at room temperature, TRF read-out
T1 construct: purchased Upstate
Method: In a 96-well polypropylene plate add 5 μl of 5× test compound (in 12.5% DMSO) per well. Prepare an assay mix of 2.5 μM biotinylated histone H1 peptide (Bachem), 2.5 mM DTT in 1× assay buffer (10× assay buffer contains 250 mM Tris-HCl pH7.5, 2.5 mM MgCl2, 0.025 Brij-35, 0.1 mg/ml BSA. Add 10 μl of assay mix per well. Prepare the Cdk5/p35 enzyme (Upstate) at 0.625 nM in 1× assay buffer with 37.5 μM ATP on ice. Add 10 μl per well to start the reaction, seal with sealing film and incubate for 30 minutes at room temperature on a plate shaker. Stop the reaction by the addition of 100 μl stop buffer (1× Blocker BSA-Pierce, 0.05% surfact-AMPS-20, 100 mM EDTA). Shake plate for 1 minute. Transfer 100 μl of the stopped reaction to a black Neutravidin coated plate. Shake at room temperature for 30 minutes. Wash plate 5× with 200 μl TBS-Tween. Add 100 μl of anti-phospho cdk1-substrate antibody (Calbiochem) at 1:1500 in 1×DELFIA assay buffer (Perkin Elmer) to each well. Shake for 1 hour at room temperature. Wash plate 5× with 200 μl TBS-Tween. Add 100 μl of Eu-labelled anti-rabbit IgG at 1:300 in 1×DELFIA assay buffer per well. Shake for 1 hour at room temperature. Wash plate 5× with 200 μl TBS-Tween. Add 100 μl DELFIA enhancement solution (Perkin Elmer) per well and incubate 5 minutes on a plate shaker at <900 rpm. Read using TRF enabled fluorimeter at 335ex/620em.

[3] = tested on: jck and cpk mouse models of PKD; settings: cited from earlier work
[4] = tested on: formalin-induced nociceptive responses in rats; settings: cited from earlier work
polycystic cpk mice = settings: cited from earlier work
[5] = Solubility of the acid addition salt; assay type: physicochemical
[6] = tested on: rat model of focal cerebral ischemia; settings: cited from earlier work

T1 sequence (Q00535 whole entry): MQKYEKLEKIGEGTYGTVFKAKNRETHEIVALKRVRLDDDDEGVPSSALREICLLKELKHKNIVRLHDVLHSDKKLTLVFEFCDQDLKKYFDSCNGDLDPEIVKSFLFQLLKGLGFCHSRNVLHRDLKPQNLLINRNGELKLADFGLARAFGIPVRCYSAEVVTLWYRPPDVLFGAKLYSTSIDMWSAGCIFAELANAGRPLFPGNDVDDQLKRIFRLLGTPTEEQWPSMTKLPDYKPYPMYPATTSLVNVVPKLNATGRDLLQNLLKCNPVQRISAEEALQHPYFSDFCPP
T1 sequence (Q15078 whole entry partner): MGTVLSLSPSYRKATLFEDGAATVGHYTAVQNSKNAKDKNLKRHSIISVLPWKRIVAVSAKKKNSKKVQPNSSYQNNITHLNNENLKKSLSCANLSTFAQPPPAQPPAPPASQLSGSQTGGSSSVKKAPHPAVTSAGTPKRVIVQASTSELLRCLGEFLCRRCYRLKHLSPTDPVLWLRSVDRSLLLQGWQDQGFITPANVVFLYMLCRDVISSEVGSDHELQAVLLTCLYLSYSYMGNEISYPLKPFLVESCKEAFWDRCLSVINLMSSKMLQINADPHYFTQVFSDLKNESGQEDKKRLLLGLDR

weight increase upon equilibration at 90% RH ([1]; crystals, 25 °C, stepwise 0-90% relative humidity): 0.24% | IC50 [2]: < 100 nM
SMILES: CS(=O)(=O)N1CCC(NC(=O)c2n[nH]cc2NC(=O)c2c(Cl)cccc2Cl)CC1 [Example 12, 4-(2,6-dichloro-benzoylamino)-1H-pyrazole-3-carboxylic acid (1-methanesulphonyl-piperidin-4-yl)-amide]
hygroscopicity / hydrate formation ([1]; storage in elevated humidity conditions): physically stable with regard to hygroscopicity

SMILES: CC[C@H](CO)Nc1nc(NCc2ccccc2)c2ncn(C(C)C)c2n1 [roscovitine]
cystic disease [3]: effective arrest of cystic disease | formalin-induced nociceptive responses [4]: attenuate the formalin-induced nociceptive responses

SMILES: CC(=O)O[C@H]1C(=O)[C@@]2(C)[C@H]([C@H](OC(=O)c3ccccc3)[C@]3(O)C[C@H](OC(=O)[C@H](O)[C@@H](NC(=O)c4ccccc4)c4ccccc4)C(C)=C1C3(C)C)[C@]1(OC(C)=O)CO[C@@H]1C[C@@H]2O [taxol]
progression of PKD and survival (polycystic cpk mice): inhibit the progression of PKD and prolongs the survival

SMILES: O=C(NC1CCNCC1)c1n[nH]cc1NC(=O)c1c(Cl)cccc1Cl [methanesulphonic acid salt, 4-(2,6-dichlorobenzoylamino)-1H-pyrazole-3-carboxylic acid piperidin-4-ylamide methanesulphonate]
solubility ([5]; pH 4.6, aqueous buffer, buffer formed from acetic acid and sodium acetate, solution pH approximately 4.6): ~35 mg/mL | water solubility ([5]; water, qualitative statement): excellent water solubility

SMILES: CN1CC[C@H](c2c(O)cc(O)c3c(=O)cc(-c4ccccc4Cl)oc23)[C@H](O)C1 [flavopiridol]
neuronal death [6]: significantly reduce neuronal death
